Reference: patent publication US12157741B2, “Macrocyclic inhibitors of DYRK1A” (DANA-FARBER CANCER INSTITUTE, INC., priority 2018, dated 2024)

Columns and labels:
Assay type in all cases: binding
Details in all cases: compound 1 uM
[1] = target: various enzymes (Homo sapiens, UniProt O43318)
Description: (§1) Ambit profiling was conducted in accordance with the manufacturer's instructions.

[2] = target: various enzymes (Homo sapiens, UniProt O75460)
Description: as §1

[3] = target: various enzymes (Homo sapiens, UniProt P00519)
Chain of various enzymes (Homo sapiens, UniProt P00519) (P00519 whole entry): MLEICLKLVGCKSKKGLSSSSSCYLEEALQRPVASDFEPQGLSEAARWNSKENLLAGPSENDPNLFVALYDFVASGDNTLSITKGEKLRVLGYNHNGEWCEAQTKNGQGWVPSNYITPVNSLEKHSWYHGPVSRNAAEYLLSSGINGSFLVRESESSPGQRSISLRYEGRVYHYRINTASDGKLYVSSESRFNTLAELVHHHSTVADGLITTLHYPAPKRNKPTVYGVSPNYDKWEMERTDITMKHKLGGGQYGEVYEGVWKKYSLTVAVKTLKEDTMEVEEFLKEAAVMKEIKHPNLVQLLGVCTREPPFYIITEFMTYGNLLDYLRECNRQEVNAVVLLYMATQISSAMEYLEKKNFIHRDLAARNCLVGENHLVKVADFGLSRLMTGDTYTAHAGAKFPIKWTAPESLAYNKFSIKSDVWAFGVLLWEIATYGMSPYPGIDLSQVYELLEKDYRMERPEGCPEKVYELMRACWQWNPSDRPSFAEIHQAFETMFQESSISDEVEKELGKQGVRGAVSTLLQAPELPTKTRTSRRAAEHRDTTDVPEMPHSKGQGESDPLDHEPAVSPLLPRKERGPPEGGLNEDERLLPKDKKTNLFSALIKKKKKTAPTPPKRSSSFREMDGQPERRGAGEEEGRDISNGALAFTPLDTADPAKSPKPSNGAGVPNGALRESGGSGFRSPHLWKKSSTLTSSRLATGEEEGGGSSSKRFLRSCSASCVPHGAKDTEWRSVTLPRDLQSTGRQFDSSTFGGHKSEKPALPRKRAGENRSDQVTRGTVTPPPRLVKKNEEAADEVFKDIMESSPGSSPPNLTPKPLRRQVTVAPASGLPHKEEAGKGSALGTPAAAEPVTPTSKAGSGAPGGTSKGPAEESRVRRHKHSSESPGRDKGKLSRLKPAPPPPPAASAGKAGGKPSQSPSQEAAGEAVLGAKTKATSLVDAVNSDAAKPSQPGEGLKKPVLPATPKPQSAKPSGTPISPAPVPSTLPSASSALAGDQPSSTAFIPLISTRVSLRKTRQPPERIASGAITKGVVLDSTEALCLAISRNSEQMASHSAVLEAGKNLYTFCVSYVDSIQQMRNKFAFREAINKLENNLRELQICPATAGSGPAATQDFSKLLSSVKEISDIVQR
Description: as §1

[4] = target: various enzymes (Homo sapiens, UniProt P04626)
Description: as §1

[5] = target: various enzymes (Homo sapiens, UniProt P36894)
Description: as §1

[6] = target: various enzymes (Homo sapiens, UniProt P50750)
Chain of various enzymes (Homo sapiens, UniProt P50750) (P50750 whole entry): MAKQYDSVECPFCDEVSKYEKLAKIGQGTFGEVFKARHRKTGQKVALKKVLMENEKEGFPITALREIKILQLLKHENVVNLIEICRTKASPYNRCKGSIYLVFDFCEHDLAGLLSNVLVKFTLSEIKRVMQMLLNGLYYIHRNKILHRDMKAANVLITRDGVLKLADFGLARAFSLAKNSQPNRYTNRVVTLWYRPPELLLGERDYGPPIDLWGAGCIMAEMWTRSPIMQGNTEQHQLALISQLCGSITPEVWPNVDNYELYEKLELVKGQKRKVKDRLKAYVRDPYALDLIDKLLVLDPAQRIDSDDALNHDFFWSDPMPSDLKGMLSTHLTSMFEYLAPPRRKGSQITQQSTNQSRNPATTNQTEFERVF
Description: as §1

[7] = target: various enzymes (Homo sapiens, UniProt P54762)
Chain of various enzymes (Homo sapiens, UniProt P54762) (P54762 18-984): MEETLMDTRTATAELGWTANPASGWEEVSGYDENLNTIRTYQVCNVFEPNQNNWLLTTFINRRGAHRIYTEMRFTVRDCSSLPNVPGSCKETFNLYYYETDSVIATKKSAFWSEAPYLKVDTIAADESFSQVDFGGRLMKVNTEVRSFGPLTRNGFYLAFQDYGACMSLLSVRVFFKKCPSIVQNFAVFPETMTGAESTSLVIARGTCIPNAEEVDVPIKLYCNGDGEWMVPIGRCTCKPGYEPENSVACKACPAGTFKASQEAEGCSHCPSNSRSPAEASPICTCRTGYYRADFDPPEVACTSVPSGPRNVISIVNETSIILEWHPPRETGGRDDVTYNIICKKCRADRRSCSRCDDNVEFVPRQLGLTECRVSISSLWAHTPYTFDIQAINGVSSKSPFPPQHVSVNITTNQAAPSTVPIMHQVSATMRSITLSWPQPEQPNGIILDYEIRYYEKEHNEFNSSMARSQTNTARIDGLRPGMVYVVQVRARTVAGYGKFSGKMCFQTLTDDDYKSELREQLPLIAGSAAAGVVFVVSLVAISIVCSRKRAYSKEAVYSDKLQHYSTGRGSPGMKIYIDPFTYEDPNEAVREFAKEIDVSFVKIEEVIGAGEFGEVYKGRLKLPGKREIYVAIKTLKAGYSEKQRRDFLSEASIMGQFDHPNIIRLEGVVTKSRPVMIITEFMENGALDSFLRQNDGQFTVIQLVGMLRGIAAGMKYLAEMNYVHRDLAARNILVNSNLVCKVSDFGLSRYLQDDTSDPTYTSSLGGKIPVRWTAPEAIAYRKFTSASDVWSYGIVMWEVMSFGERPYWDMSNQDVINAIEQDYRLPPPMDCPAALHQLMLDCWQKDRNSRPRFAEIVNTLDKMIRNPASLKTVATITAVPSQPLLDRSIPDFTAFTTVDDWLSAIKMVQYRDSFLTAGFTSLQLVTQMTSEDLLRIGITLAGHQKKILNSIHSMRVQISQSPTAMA
Description: as §1

[8] = target: various enzymes (Homo sapiens, UniProt P54764)
Description: as §1

[9] = target: T1, various enzymes (Homo sapiens, UniProt Q13873)
T1 sequence (Q13873 27-1038): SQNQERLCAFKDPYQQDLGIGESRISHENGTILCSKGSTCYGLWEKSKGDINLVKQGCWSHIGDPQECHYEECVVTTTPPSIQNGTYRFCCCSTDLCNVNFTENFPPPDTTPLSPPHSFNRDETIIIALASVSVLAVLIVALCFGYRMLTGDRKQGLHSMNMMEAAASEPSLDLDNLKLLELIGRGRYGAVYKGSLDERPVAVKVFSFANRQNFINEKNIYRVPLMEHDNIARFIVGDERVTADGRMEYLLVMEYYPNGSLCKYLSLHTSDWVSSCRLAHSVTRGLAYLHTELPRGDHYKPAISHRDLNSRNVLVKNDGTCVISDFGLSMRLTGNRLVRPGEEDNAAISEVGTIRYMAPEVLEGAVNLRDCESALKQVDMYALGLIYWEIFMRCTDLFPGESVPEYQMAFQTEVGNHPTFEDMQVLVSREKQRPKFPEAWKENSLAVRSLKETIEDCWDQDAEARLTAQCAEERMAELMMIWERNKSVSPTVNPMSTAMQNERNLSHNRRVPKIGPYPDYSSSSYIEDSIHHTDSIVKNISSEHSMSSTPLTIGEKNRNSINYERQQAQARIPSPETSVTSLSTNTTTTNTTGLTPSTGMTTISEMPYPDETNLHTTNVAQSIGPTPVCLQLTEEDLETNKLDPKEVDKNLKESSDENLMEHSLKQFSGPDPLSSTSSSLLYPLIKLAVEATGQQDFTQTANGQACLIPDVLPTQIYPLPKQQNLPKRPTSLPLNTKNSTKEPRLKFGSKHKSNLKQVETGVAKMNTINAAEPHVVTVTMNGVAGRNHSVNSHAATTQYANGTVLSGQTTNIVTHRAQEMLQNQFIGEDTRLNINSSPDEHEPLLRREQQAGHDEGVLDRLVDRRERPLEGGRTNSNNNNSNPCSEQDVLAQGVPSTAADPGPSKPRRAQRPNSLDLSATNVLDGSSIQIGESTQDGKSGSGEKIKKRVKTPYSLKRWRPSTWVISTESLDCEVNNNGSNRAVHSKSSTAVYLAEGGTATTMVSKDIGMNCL
Description: as §1

[10] = target: various enzymes (Homo sapiens, UniProt Q16539)
Description: as §1

[11] = target: various enzymes (Homo sapiens, UniProt Q16620)
Chain of various enzymes (Homo sapiens, UniProt Q16620) (Q16620 32-822): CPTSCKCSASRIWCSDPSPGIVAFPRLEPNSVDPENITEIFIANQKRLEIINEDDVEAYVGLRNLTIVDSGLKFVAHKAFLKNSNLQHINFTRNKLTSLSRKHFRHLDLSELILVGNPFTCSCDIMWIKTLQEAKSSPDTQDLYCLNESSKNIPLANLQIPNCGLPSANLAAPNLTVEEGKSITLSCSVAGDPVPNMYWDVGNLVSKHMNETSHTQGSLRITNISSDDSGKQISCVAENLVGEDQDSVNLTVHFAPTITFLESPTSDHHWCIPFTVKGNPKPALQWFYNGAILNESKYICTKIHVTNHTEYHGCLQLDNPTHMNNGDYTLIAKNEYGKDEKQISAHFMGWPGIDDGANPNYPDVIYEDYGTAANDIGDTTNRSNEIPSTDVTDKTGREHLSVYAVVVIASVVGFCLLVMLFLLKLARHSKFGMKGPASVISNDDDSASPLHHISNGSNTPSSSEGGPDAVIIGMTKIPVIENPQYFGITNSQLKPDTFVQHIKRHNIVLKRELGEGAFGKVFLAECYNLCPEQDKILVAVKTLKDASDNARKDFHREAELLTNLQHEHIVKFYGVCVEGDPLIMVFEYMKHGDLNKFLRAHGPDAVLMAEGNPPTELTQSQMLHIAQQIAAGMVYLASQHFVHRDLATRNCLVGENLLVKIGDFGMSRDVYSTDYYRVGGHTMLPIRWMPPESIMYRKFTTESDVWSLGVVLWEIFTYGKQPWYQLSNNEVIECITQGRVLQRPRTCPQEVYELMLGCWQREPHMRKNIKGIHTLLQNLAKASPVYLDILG
Description: as §1

[12] = target: various enzymes (Homo sapiens, UniProt Q16659)
Description: as §1

[13] = target: various enzymes (Homo sapiens, UniProt Q2M2I8)
Description: as §1

[14] = target: various enzymes (Homo sapiens, UniProt Q86UE8)
Description: as §1

[15] = target: various enzymes (Homo sapiens, UniProt Q86V86)
Description: as §1

[16] = target: various enzymes (Homo sapiens, UniProt Q92630)
Chain of various enzymes (Homo sapiens, UniProt Q92630) (Q92630 whole entry): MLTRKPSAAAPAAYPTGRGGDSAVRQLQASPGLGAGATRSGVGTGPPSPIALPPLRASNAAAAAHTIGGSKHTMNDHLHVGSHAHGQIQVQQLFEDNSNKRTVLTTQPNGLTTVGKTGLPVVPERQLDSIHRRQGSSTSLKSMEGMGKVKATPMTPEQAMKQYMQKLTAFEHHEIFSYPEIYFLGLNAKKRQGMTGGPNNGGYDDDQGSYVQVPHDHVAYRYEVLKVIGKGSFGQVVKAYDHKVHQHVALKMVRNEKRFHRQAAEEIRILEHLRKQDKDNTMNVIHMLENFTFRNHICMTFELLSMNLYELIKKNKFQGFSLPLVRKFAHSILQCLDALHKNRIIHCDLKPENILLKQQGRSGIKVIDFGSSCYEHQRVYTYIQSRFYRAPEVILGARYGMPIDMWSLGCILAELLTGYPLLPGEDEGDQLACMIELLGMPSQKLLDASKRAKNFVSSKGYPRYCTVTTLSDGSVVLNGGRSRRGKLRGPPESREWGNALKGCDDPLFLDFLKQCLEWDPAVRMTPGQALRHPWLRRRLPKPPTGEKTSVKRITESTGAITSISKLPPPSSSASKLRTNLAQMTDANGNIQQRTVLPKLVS
Description: as §1

[17] = target: various enzymes (Homo sapiens, UniProt Q96J92)
Description: as §1

[18] = target: various enzymes (Homo sapiens, UniProt Q9H4A3)
Description: as §1

[19] = target: various enzymes (Homo sapiens, UniProt Q9HC98)
Description: as §1

Chain of various enzymes (Homo sapiens, UniProt O43318) (O43318 whole entry): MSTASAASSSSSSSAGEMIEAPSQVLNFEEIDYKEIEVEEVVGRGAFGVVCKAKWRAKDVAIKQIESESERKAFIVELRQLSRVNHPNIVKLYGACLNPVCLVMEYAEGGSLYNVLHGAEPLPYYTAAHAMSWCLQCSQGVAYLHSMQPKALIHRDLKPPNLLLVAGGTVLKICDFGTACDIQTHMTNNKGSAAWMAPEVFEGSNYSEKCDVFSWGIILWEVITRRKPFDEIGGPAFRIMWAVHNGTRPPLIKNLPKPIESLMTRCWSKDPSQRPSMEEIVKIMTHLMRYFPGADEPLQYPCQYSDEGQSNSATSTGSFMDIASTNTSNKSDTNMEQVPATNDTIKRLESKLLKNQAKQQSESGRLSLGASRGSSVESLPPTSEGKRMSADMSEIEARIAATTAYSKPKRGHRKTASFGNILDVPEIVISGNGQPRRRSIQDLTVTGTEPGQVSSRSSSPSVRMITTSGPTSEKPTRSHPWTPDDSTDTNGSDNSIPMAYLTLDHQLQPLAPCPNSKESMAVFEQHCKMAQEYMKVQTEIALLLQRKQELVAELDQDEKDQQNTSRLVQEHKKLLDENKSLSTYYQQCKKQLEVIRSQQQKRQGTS

Structure (SMILES)	Ambit profiling: TAK1 [1]	Ambit profiling: ERN1 [2]	Ambit profiling: ABL1-nonphosphorylated [3]	Ambit profiling: ABL1-phosphorylated [3]	Ambit profiling: ERBB2 [4]	Ambit profiling: BMPR1A [5]	Ambit profiling: CDK9 [6]	Ambit profiling: EPHB1 [7]	Ambit profiling: EPHA4 [8]	Ambit profiling: BMPR2 [9]	Ambit profiling: p38-alpha [10]	Ambit profiling: TRKB [11]	Ambit profiling: ERK3 [12]	Ambit profiling: AAK1 [13]	Ambit profiling: TLK2 [14]	Ambit profiling: PIM3 [15]	Ambit profiling: DYRK2 [16]	Ambit profiling: WNK4 [17]	Ambit profiling: WNK1 [18]	Ambit profiling: NEK6 [19]
COc1c2c(nn1C)CN(C(C)C)C(=O)CCCn1cc(c(C(F)(F)F)n1)-c1c[nH]c3ncc-2cc13 [Compound 50, (Z)-5-isopropyl-35-methoxy-31-methyl-13-(trifluoromethyl)-11H,21H,31H-5-aza-2(3,5)-pyrrolo[2,3-b]pyridina-1(4,1),3(4,3)-dipyrazolacyclononaphan-6-one]	9.1	71	11	3.8	86	88	47	48	63	89	81	0	69	43	91	91	56	100	100	100
CC(C)N1Cc2nn(C)cc2-c2cnc3[nH]cc(c3c2)-c2cn(nc2C(F)(F)F)CCCC1=O [Compound 45, (Z)-5-isopropyl-31-methyl-13-(trifluoromethyl)-11H,21H,31H-5-aza-2(3,5)-pyrrolo[2,3-b]pyridina-1(4,1),3(4,3)-dipyrazolacyclononaphan-6-one]	4.1	90	20	9	100	97	60	51	88	78	86	0.25	100	40	86	94	25	97	100	98
